Read-outs that look alike come from different tables or passages of the source.
Test system: Human Jurkat T-cells (clone N)
Assay: Jurkat T-cell activation (anti-TCR, CD69 upregulation)
Type: cell-based
Procedure: The screening process took place over three days.
On the first day of the screen, cultured cells were spun down on a centrifuge (1000 rpm, 5 minutes) and resuspended at 3.0×10^5 cells/ml in RPMI+5% FBS. On the second day of the screen, cells were spun down at 1000 rpm for 5 minutes and resuspended in RPMI+5% FBS at 1.3×10^5 cells/ml. 85 μl of this cell suspension were added to the wells of U-bottom 96 well plates (Corning) 85 μl of compound or diluted RPMI+5% FBS (as a control) only was added to each well and incubated at 37° C. for 1 hour. The cells were then stimulated with anti-TCR (C305) at: 500 ng/ml by adding a 8× solution in 25 μl to the plated cells. The cells were then incubated at 37° C. for 20 hrs.
On the third day of the screen, the plates were spun at 2500 RPM for 1 minute on a Beckman GS-6R centrifuge, and the medium was then removed. 50 μl staining solution (1:100 dilution of anti-CD69-APC antibody (Becton Dickenson) in PBS+2% FBS) was then added to each well, followed by incubation of the plates 4 degrees for 20 minutes in the dark. 150 μl of wash buffer (PBS+2% FBS) was then added to each well, and the plates were spun at 3000 RPM for 1 minute. The supernatant was again removed, and the pellet was resuspended by vortexing gently. 75 μl of PBS+2% FBS +Cytofix (1:4 dilution) was then added, the plates gently vortexed and wrap in aluminum foil. Cells from the plates were read using a flow cytometer coupled to an automated liquid handling system.
Varied concentrations of compound were compared to solvent only to determine the inhibition of T-cell activation IC50 of each compound.

Row | SMILES | IC50 | IC50 (Homo sapiens, Jurkat) | other results
1 | CNC(=O)COc1cc(Nc2ncc(F)c(Nc3ccc(C)c(OCC(=O)NC)c3)n2)ccc1C [Compound R926760] | 10.2 µM | – | –
2 | CC1(C)Oc2cc(Nc3nc(Cl)ncc3F)cnc2NC1=O [Compound R940344] | 7.74 µM | – | –
3 | Cc1cc(Nc2nc(Nc3cccc(OCC(=O)N4CCNCC4)c3)ncc2F)cc(C)c1O [Compound R945140] | 2.09 µM | – | –
4 | CNC(=O)COc1cccc(Nc2ncc(F)c(Nc3cc(OC)c(Cl)cc3OC)n2)c1 [Compound R926859] | > 10 µM | – | –
5 | Fc1cnc(NCCCN2CCN(Cc3c(F)cccc3Cl)CC2)nc1Nc1ccc2c(c1)OCCO2 [Compound R926717] | – | 3.75 µM | –
6 | CCOC(=O)CCn1ncc2ccc(Nc3ncc(F)c(Nc4ccc5c(c4)OCCO5)n3)cc21 [Compound R935286] | 2.5 µM | – | –
7 | COc1ccc(C)c(Nc2ncc(F)c(Nc3ccc4c(c3)OCCO4)n2)c1 [Compound R926896] | – | > 10 µM | –
8 | Cc1cc(Nc2ncc(F)c(Nc3cc(C)c(O)cc3C)n2)c(C)cc1O [Compound R926623] | – | 10 µM | –
9 | CNC(=O)C(C)(C)Oc1cccc(Nc2ncc(F)c(Nc3ccc4c(c3)OCCO4)n2)c1 [Compound R926915] | > 10 µM | – | –
10 | CNC(=O)COc1cccc(Nc2ncc(F)c(Nc3ccc(C)c(OC)c3)n2)c1 [Compound R926902] | > 10 µM | – | –
11 | CC(C)NC(=O)Oc1cccc(Nc2ncc(F)c(Nc3cccc(OC(=O)NC(C)C)c3)n2)c1 [Compound R926412] | – | – | IC50 (Homo sapiens): 2.38 µM
12 | COC(=O)c1cc2cc(Nc3ncc(F)c(Nc4ccc5oc(C(=O)OC)cc5c4)n3)ccc2o1 [Compound R926604] | – | > 10 µM | –
13 | Clc1cc(Nc2ccc3c(c2)OCCO3)nc(Nc2ccc3c(c2)OCCO3)n1 [Compound R926245] | – | 11.1 µM | –
14 | CNC(=O)COc1cccc(Nc2ncc(F)c(Nc3ccc4c(c3)C(N=[N+]=[N-])CCO4)n2)c1 (centres unmarked) [Compound R950383] | 1.03 µM | – | –
15 | CCOC(=O)C(C)(C)c1ccc(Nc2nc(Nc3ccc4c(c3)OCCO4)ncc2F)cc1 [Compound R935148] | > 10 µM | – | –
16 | COCc1cc(=O)oc2cc(Nc3ncc(F)c(Nc4ccc5c(COC)cc(=O)oc5c4)n3)ccc12 [Compound R926620] | > 10 µM | – | –
17 | CC(C)c1cccc(Nc2nc(Nc3cccc(OCC(=O)NC[C@@H](O)CO)c3)ncc2F)c1 [Compound R940307] | 2.06 µM | – | –
18 | COC(=O)C(CC(C)C)Nc1ncc(C#N)c(NC(CC(C)C)C(=O)OC)n1 (centres unmarked) [Compound R925815] | – | > 10 µM | –
19 | COC(=O)COc1cccc(Nc2ncc(F)c(Nc3ccc4[nH]ncc4c3)n2)c1 [Compound R935269] | 7.58 µM | – | –
20 | N#Cc1cnc(Nc2cccc(O)c2)nc1Nc1ccc(OCC(=O)NCC2CC2)cc1 [Compound R925845] | 6.97 µM | – | –
21 | CCOC(=O)c1cc2cccc(Nc3ncc(F)c(Nc4cc(OC)cc(OC)c4)n3)c2[nH]1 [Compound R926803] | – | > 10 µM | –

Row | SMILES | IC50 | IC50 (Homo sapiens, Jurkat) | other results
22 | CNC(=O)COc1cccc(Nc2ncc(F)c(Nc3ccc(Cl)c(C(F)(F)F)c3)n2)c1 [Compound R926881] | 11 µM | – | –
23 | COc1cc(Nc2ncc(F)c(Nc3cccc(O)c3)n2)cc(OC)c1OC [Compound R926761] | – | 0.694 µM | –
24 | CN1C(=O)COc2cc(Nc3nc(Nc4cccc(O)c4)ncc3F)ccc21 [Compound R909264] | – | 3.24 µM | –
25 | Fc1cnc(NCc2ccco2)nc1NCc1ccco1 [Compound R925769] | – | > 10 µM | –
26 | O=C(COc1cccc(Nc2ncc(F)c(Nc3ccc4c(c3)OCCO4)n2)c1)NCCOC(=O)CCCCC1SCC2NC(=O)NC21 (centres unmarked) [Compound R926811] | 1.28 µM | – | –
27 | O=[N+]([O-])c1cnc(Nc2ccc3c(c2)OC(F)(F)O3)nc1Nc1ccc2c(c1)OC(F)(F)O2 [Compound R940100] | – | > 10 µM | –
28 | COc1ccc(Nc2ncc(F)c(Nc3ccc4c(c3)OCCO4)n2)c(OC)c1 [Compound R926789] | – | > 10 µM | –
29 | CC(=O)Nc1cccc(N(C(C)=O)c2ncc(F)c(N(C(C)=O)c3cccc(NC(C)=O)c3)n2)c1 [Compound R950244] | > 10 µM | – | –
30 | CCOC(=O)c1ncn2c1COc1c(Nc3nc(Nc4cccc(OCC(=O)NC)c4)ncc3F)cccc1-2 [Compound R909265] | 12 µM | – | –
31 | O=C(O)c1cc2cc(Nc3ncc(F)c(Nc4ccc5c(c4)OCCO5)n3)ccc2o1 [Compound R926698] | – | > 10 µM | –
32 | O=C(COc1cccc(Nc2ncc(F)c(Nc3ccc4c(c3)OCCO4)n2)c1)N1CCNCC1 [Compound R926504] | 1.78 µM | – | –
33 | COc1c(C)cc(Nc2nc(Nc3cccc(OCC(=O)N4CCNCC4)c3)ncc2F)cc1C [Compound R945156] | 2.29 µM | – | –
34 | CCOC(=O)c1nc(Nc2cccc(O)c2)nc(Nc2cccc(O)c2)c1[N+](=O)[O-] [Compound R925849] | – | 8.02 µM | –
35 | CC(=O)Nc1cccc(OCCCNc2ncc(F)c(Nc3ccc4c(c3)OCCO4)n2)c1 [Compound R926787] | – | > 10 µM | –
36 | Cn1cc2cc(Nc3ncc(F)c(Nc4ccc5c(c4)OCCO5)n3)ccc2n1 [Compound R935300] | 3.38 µM | – | –
37 | Cc1cc(Nc2nc(Nc3cccc(OCC(=O)N4CCOCC4)c3)ncc2F)cc(Cl)c1O [Compound R940265] | 5.56 µM | – | –
38 | CCOC(=O)c1nc(Nc2ccc3c(c2)OCCO3)nc(Nc2ccc3c(c2)OCCO3)c1[N+](=O)[O-] [Compound R925852] | – | > 10 µM | –
39 | CNC(=O)COc1cccc(Nc2ncc(F)c(Nc3cc(OC)cc(OC)c3)n2)c1 [Compound R926796] | 4.21 µM | – | –
40 | O=[N+]([O-])c1cnc(Nc2ccc3c(c2)OCCO3)nc1Nc1ccc2c(c1)OCCO2 [Compound R940095] | – | > 10 µM | –
41 | COc1cc(Nc2nc(Nc3cccc(O)c3)ncc2F)cc(OC)c1 [Compound R926802] | – | 5.91 µM | –
42 | Cc1nc(COc2cccc(Nc3ncc(F)c(Nc4ccc5oc(C(N)=O)cc5c4)n3)c2)no1 [Compound R945135] | 4.37 µM | – | –

Further lines, with some results ahead:

Row | IC50 | IC50 (Homo sapiens, Jurkat) | SMILES | other results
43 | – | > 10 µM | Fc1cnc(Cl)nc1Nc1cccc(-c2nnc(-c3ccccc3)o2)c1 [Compound R926869] | –
44 | – | 9.47 µM | CC(=O)Nc1ccc(Nc2ncc(F)c(Nc3ccc(NC(C)=O)cc3)n2)cc1 [Compound R940222] | –
45 | – | > 10 µM | COc1ccc(C(Nc2ncc(F)c(NC(c3ccc(OC)cc3)c3ccc(OC)cc3)n2)c2ccc(OC)cc2)cc1 [Compound R935004] | –
46 | – | 48.9 µM | COC(=O)c1cc2cc(Nc3ncc(F)c(Nc4cccc(OC(C)C)c4)n3)ccc2o1 [Compound R926487] | –
47 | 6.35 µM | – | CNC(=O)COc1ccc(Nc2ncc(F)c(Nc3ccc(C(C)(C)C)cc3)n2)cc1 [Compound R926712] | –
48 | – | > 10 µM | Clc1ccc(-c2cnc(Nc3ccc4c(c3)OCCO4)nc2Nc2ccc3c(c2)OCCO3)cc1 [Compound R925786] | –
49 | > 10 µM | – | C[C@H](Nc1ncc(F)c(N[C@@H](C)[C@H](O)c2ccccc2)n1)[C@H](O)c1ccccc1 [Compound R925767] | –
50 | > 10 µM | – | COc1cc(C(=O)NS(=O)(=O)c2ccccc2C)ccc1Cn1ncc2ccc(Nc3ncc(F)c(Nc4cccc(O)c4)n3)cc21 [Compound R935324] | –
51 | – | > 10 µM | c1ccc(-c2ccccc2Nc2ccnc(Nc3ccccc3-c3ccccc3)n2)cc1 [Compound R925804] | –
52 | – | > 10 µM | Fc1cnc(Nc2cccc(-c3nnn[nH]3)c2)nc1Nc1ccc2c(c1)OCCO2 [Compound R926843] | –
53 | 6.08 µM | – | Cc1nc(COc2cccc(Nc3ncc(F)c(Nc4ccc(OC(C)C)cc4)n3)c2)no1 [Compound R945129] | –
54 | 3.08 µM | – | CNC(=O)COc1cccc(Nc2nc(Nc3ccc(OCCN(C)C)cc3)ncc2F)c1 [Compound R909253] | –
55 | – | 1.96 µM | CC(C)Oc1ccc(Nc2nc(Nc3ccc(C(C)(C)CO)cc3)ncc2F)cc1 [Compound R935151] | –
56 | > 10 µM | – | O=C(O)COc1ccc(Nc2ncc(F)c(Nc3ccc4c(c3)OCCO4)n2)cc1 [Compound R926238] | –
57 | 0.497 µM | – | OCCCn1ncc2cc(Nc3ncc(F)c(Nc4cccc(O)c4)n3)ccc21 [Compound R935304] | –
58 | – | > 10 µM | COc1ccc(Nc2ccnc(Nc3ccc(OC)c(-c4ccccc4)c3)n2)cc1-c1ccccc1 [Compound R925806] | –
59 | – | > 10 µM | CCOc1ccc(Nc2ncc(F)c(Nc3ccc(OCC)cc3)n2)cc1 [Compound R070790, N2,N4-bis(4-ethoxyphenyl)-5-fluoro-2,4-pyrimidinediamine] | –
60 | > 10 µM | – | CC(C)(C)c1cccc(Nc2nc(Nc3cccc(OCC(=O)O)c3)ncc2F)c1 [Compound R940280] | –
61 | 1.98 µM | – | Cc1noc(COc2ccc(Nc3nc(Nc4cccc(O)c4)ncc3F)cc2)n1 [Compound R935147] | –
62 | 2.14 µM | – | CCOc1ccc(Nc2nc(Nc3cccc(OCC(=O)NC)c3)ncc2F)cc1 [Compound R926827] | –
63 | – | 7.11 µM | Nc1cccc(Nc2ncc(F)c(Nc3cccc(O)c3)n2)c1 [Compound R950227] | –
64 | – | > 10 µM | CC(Nc1nc(Nc2cccc(O)c2)ncc1Br)c1ccc(F)cc1 (racemic) [Compound R935023] | –
65 | – | > 10 µM | COC(=O)c1ccc(Nc2ncc(F)c(Nc3ccc(C(=O)OC)cc3)n2)cc1 [Compound R945034] | –
66 | – | > 10 µM | CCc1ccc(Nc2ncc(F)c(Nc3ccc(CC)cc3)n2)cc1 [Compound R926234] | –
67 | > 10 µM | – | COC(=O)COc1ccc(Nc2ncc(F)c(Nc3ccc4c(cnn4C)c3)n2)cc1 [Compound R935209] | –
68 | 1.41 µM | – | CC(C)Oc1ccc(Nc2nc(Nc3ccc4c(cnn4CCCO)c3)ncc2F)cc1 [Compound R935307] | –
